In the test the test system is KRAS PDC multicell spheroid viability. Description: Anticancer human tumor 825966-067-R-J1-PDC patient-derived colon carcinoma cell line growth inhibition [KRAS2]. To be noted: for viability, T/C: stronger effect = lower value. The method, boiled down:
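KRAS-mutant tumor cells were grown as spheroids with HUVEC endothelial cells and human MSCs as stroma. Targeted agents were tested alone and with KRAS pathway inhibitors. Doses started at or near clinical Cmax, or 10 microM, descending half-log.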

The mark [1] stands for this setting: curve of first compound, second compound 0.1 µM.
Setting [2] is: curve of first compound, second compound 0.316 µM.
[3] abbreviates: curve of first compound, second compound 1 µM.
Setting [4] is: curve of first compound, second compound 3.16 µM.
The mark [5] stands for this setting: curve of first compound, second compound 10 µM.
Where [6] appears, read: second compound 0.1 µM, first compound 0.0316 µM.
The mark [7] stands for this setting: second compound 0.1 µM, first compound 0.1 µM.
The mark [8] stands for this setting: second compound 0.316 µM, first compound 0.0316 µM.
Setting [9] is: second compound 0.316 µM, first compound 0.1 µM.
The mark [10] stands for this setting: second compound 1 µM, first compound 0.0316 µM.
[11] abbreviates: second compound 1 µM, first compound 0.1 µM.
Where [12] appears, read: second compound 3.16 µM, first compound 0.0316 µM.
Where [13] appears, read: second compound 3.16 µM, first compound 0.1 µM.
Where [14] appears, read: second compound 10 µM, first compound 0.0316 µM.
Setting [15] is: second compound 10 µM, first compound 0.1 µM.
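Also: spheroids exposed to compounds for 7 days.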
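For viability, T/C in this document: 100% = DMSO vehicle control viability.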

As for `CN(C)C/C=C/C(=O)Nc1cc2c(Nc3ccc(F)c(Cl)c3)ncnc2cc1O[C@H]1CCOC1` + CNCc1ccccc1-c1csc(C(C)Nc2nc(C)nc3cc(OC)c(OC)cc23)c1, the IC50 was > 0.1 µM under setting [1]; > 0.1 µM under setting [2]; > 0.1 µM under setting [3]; > 0.1 µM under setting [4]; < 0.000316 µM under setting [5]. Besides, the viability, T/C is 103% (second compound 0.1 µM, first compound 0.000316 µM); 92.3% (second compound 0.1 µM, first compound 0.001 µM); 98% (second compound 0.1 µM, first compound 0.00316 µM); 113% (second compound 0.1 µM, first compound 0.01 µM); 88.8% under setting [6]; 106% under setting [7]. Besides, the viability, T/C reads like this: (second compound 0.316 µM, first compound 0.000316 µM) 123%; (second compound 0.316 µM, first compound 0.001 µM) 108%; (second compound 0.316 µM, first compound 0.00316 µM) 107%; (second compound 0.316 µM, first compound 0.01 µM) 105%; under setting [8], 99.3%; under setting [9], 92.4%. In addition, the viability, T/C reads like this: (second compound 1 µM, first compound 0.000316 µM) 110%; (second compound 1 µM, first compound 0.001 µM) 101%; (second compound 1 µM, first compound 0.00316 µM) 89.5%; (second compound 1 µM, first compound 0.01 µM) 107%; under setting [10], 108%; under setting [11], 106%. In addition, the viability, T/C (second compound 3.16 µM, first compound 0.000316 µM) was 128%; the viability, T/C (second compound 3.16 µM, first compound 0.001 µM) was 113%; the viability, T/C (second compound 3.16 µM, first compound 0.00316 µM) was 107%; the viability, T/C (second compound 3.16 µM, first compound 0.01 µM) was 1.05%; the viability, T/C under setting [12] was 130%; the viability, T/C under setting [13] was 104%. Besides, the viability, T/C (second compound 10 µM, first compound 0.000316 µM) was 1.54%; the viability, T/C (second compound 10 µM, first compound 0.001 µM) is 0.37%; the viability, T/C (second compound 10 µM, first compound 0.00316 µM) is 0.43%; the viability, T/C (second compound 10 µM, first compound 0.01 µM) is 1.89%; the viability, T/C under setting [14] was 1.87%; the viability, T/C under setting [15] was 2.49%.
Turning to `COc1cc2nccc(Oc3ccc(NC(=O)C4(C(=O)Nc5ccc(F)cc5)CC4)cc3)c2cc1OC` + C=CC(=O)N1CCN(c2nc(=O)n(-c3c(C)ccnc3C(C)C)c3nc(-c4c(O)cccc4F)c(F)cc23)C(C)C1, the IC50 is, setting by setting: under setting [1], 1.73 µM; under setting [2], 1.59 µM; under setting [3], 1.69 µM; under setting [4], 1.52 µM; under setting [5], 0.461 µM. Further, the viability, T/C by setting is: under setting [6], 108%; under setting [7], 111%; (second compound 0.1 µM, first compound 0.316 µM) 81.8%; (second compound 0.1 µM, first compound 1 µM) 88.8%; (second compound 0.1 µM, first compound 3.16 µM) 6.77%; (second compound 0.1 µM, first compound 10 µM) 8.36%. For the same compound, the viability, T/C was 91.1% under setting [8]; 122% under setting [9]; 71.7% (second compound 0.316 µM, first compound 0.316 µM); 78.3% (second compound 0.316 µM, first compound 1 µM); 6.54% (second compound 0.316 µM, first compound 3.16 µM); 10.2% (second compound 0.316 µM, first compound 10 µM). Moreover, the viability, T/C under setting [10] is 111%; the viability, T/C under setting [11] is 118%; the viability, T/C (second compound 1 µM, first compound 0.316 µM) was 85.8%; the viability, T/C (second compound 1 µM, first compound 1 µM) was 87.5%; the viability, T/C (second compound 1 µM, first compound 3.16 µM) was 2.49%; the viability, T/C (second compound 1 µM, first compound 10 µM) was 8.75%. The viability, T/C is, setting by setting: under setting [12], 88.4%; under setting [13], 77%; (second compound 3.16 µM, first compound 0.316 µM) 90%; (second compound 3.16 µM, first compound 1 µM) 76.1%; (second compound 3.16 µM, first compound 3.16 µM) 2.99%; (second compound 3.16 µM, first compound 10 µM) 6.07%. Also, the viability, T/C is 97.4% under setting [14]; 78.5% under setting [15]; 56.1% (second compound 10 µM, first compound 0.316 µM); 41.7% (second compound 10 µM, first compound 1 µM); 2% (second compound 10 µM, first compound 3.16 µM); 2.5% (second compound 10 µM, first compound 10 µM).
In the case of `CN(C)C/C=C/C(=O)Nc1cc2c(Nc3ccc(F)c(Cl)c3)ncnc2cc1O[C@H]1CCOC1`, the viability, T/C (compound 0.1 µM) was 105% [middle of 5 runs]. Further, under “curve of compound”, the IC50 was > 0.1 µM.

The IC50 is the concentration that inhibits the measured activity by half. In general, viability, T/C refers to the result in the treated group divided by that in the control group, in per cent.

Values taken from PubChem BioAssay AID1963865 (Molecular Pharmacology Branch, DTP, NCI, 2024).
